Results from patent publication US20260256731A1, “RETINAL VASODILATOR AND PHARMACEUTICAL COMPOSITION” (TEIKYO UNIVERSITY, priority 2022, published 2026).
Like-named read-outs stand apart in the source and are kept apart here.

How the values were obtained:
retinal blood vessel = settings: cited from earlier work
[1] = tested on: porcine retinal artery denuded of endothelium; assay: Retinal vasodilation test using porcine retinal extraction artery denuded of endothelium (CHAPS); assay type: cell-based, pig; settings: n=11, FIG. 3 (Example 3)
Description: (§1) Pigs aged 8 to 12 weeks were euthanized. Immediately after euthanization, the eyeballs were excised. A retinal artery was separated from the excised eyeballs (Nagaoka et al., Invest Ophthalmol Vis Sci. 2007 February; 48(2):825-32.). An anterior eye part and a vitreous body were carefully taken out with an anatomical microscope. A posterior eye part was placed in an ice-cold dissection chamber containing a physiological saline solution (PSS: 145.0 mM NaCl, 4.7 mM KCl, 2.0 mM CaCl2), 1.17 mM MgSO4, 1.2 mM NaH2PO4, 5.0 mM glucose, 2.0 mM pyruvic acid, 0.02 mM EDTA, and 3.0 mM [3-(N-morpholino) propanesulfonic acid] (MOPS)) to which 1% albumin was added. A single secondary retinal artery (in-situ inner diameter: 90 to 130 μm, length: 0.6 to 1.0 mm) was carefully dissected using a Dumont microdissection forceps (Fine Science Tools, Inc., Foster City, CA) under observation with a stereomicroscope (model SZX12; Olympus, Melville, NY). […] Thereafter, the inner diameter was continuously measured and recorded during the experiment. […]
(§2) The blood vessel was relaxed with EDTA (1 mM)-calcium-free PSS, and the maximum diameter was obtained at a lumen pressure of 55 cmH2O. The change in diameter of the blood vessel in response to nobiletin was standardized by the maximum vasodilation and expressed as a percentage with respect to the maximum vasodilation.

rat pulmonary artery = settings: cited from earlier work
rat mesenteric artery = settings: pre-contracted with phenylephrine; vascular endothelium-dependent; cited from earlier work
porcine retinal artery = assay: Retinal vasodilation test using porcine retinal extraction artery; assay type: cell-based, pig
Description: Pigs aged 8 to 12 weeks were euthanized. Immediately after euthanization, the eyeballs were excised. A retinal artery was separated from the excised eyeballs (Nagaoka et al., Invest Ophthalmol Vis Sci. 2007 February; 48(2):825-32.). An anterior eye part and a vitreous body were carefully taken out with an anatomical microscope. A posterior eye part was placed in an ice-cold dissection chamber containing a physiological saline solution (PSS: 145.0 mM NaCl, 4.7 mM KCl, 2.0 mM CaCl2), 1.17 mM MgSO4, 1.2 mM NaH2PO4, 5.0 mM glucose, 2.0 mM pyruvic acid, 0.02 mM EDTA, and 3.0 mM [3-(N-morpholino) propanesulfonic acid] (MOPS)) to which 1% albumin was added. A single secondary retinal artery (in-situ inner diameter: 90 to 130 μm, length: 0.6 to 1.0 mm) was carefully dissected using a Dumont microdissection forceps (Fine Science Tools, Inc., Foster City, CA) under observation with a stereomicroscope (model SZX12; Olympus, Melville, NY). After carefully removing the remaining nerve tissue and connective tissue, an artery was transferred to a Lucite-made blood vessel chamber into which a PSS-albumin solution equilibrated with air at room temperature was added for cannula insertion. A glass micro pipette (outer diameter of distal end: 30 to 40 μm) filled with the PSS-albumin solution was used to cannulate one end of the artery, and the outside of the artery was firmly tied to a pipette with 11-0 ophthalmic suture (Alcon, Fort Worth, TX). The other end of the blood vessel was cannulated with a second micro pipette and fixed with a suture. After the cannula insertion, the blood vessel and the pipette were transferred to the stage of an inverted microscope (model CKX41, Olympus); and a video camera (Sony DXC-190, Labtek, Campbell, CA), a video micrometer (Cardiovascular Research Institute, Texas A&M System Health Science Center, College Station, TX), and a data collection system (PowerLab, ADInstruments, Colorado Springs, CO) were connected to each other. Thereafter, the inner diameter was continuously measured and recorded during the experiment. The micro pipette was connected to an independent pressure reservoir (a 30 mL glass syringe). The blood vessel was pressurized to a lumen pressure of 55 cm H2O (40 mmHg) by adjusting the height of the reservoir.
The cannula-inserted arteriole was immersed in PSS at 36° C. to 37° C. to generate a basal tone. […] After the control reaction was terminated, the blood vessel was washed with PSS, and the basal tone was re-generated. […]
as §2, with “vasodilation. […]” for “vasodilation.”

rat aorta = settings: pre-contracted with phenylephrine; vascular endothelium-independent; cited from earlier work
[2] = tested on: porcine retinal artery treated with ODQ; assay: Retinal vasodilation test using porcine retinal extraction artery treated with ODQ (guanylate cyclase inhibitor); assay type: cell-based, pig
Description: as §1, with “added.” for “added. A single secondary retinal artery (in-situ inner diameter: 90 to 130 μm, length: 0.6 to 1.0 mm) was carefully dissected using a Dumont microdissection forceps (Fine Science Tools, Inc., Foster City, CA) under observation with a stereomicroscope (model SZX12; Olympus, Melville, NY).”
as §2, with “vasodilation. […]” for “vasodilation.”
In the same manner as in Example 1, the porcine retinal extraction artery was treated with ODQ, and the role of guanylate cyclase in the retinal vasodilating effect of nobiletin was evaluated (n=7).

In the case of `CC#CCC(C)[C@H](O)/C=C/[C@@H]1[C@H]2c3cccc(CCCC(=O)O)c3O[C@H]2C[C@H]1O` (mixture of isomers) [Beraprost], the Maximum vasodilation rate (retinal blood vessel; concentration 10^-7M) is listed as 70%.

For `O=C1CCc2cc(OCCCCc3nnnn3C3CCCCC3)ccc2N1` [Cilostazol], the Maximum vasodilation rate (retinal blood vessel; concentration 10^-5M) is listed as 40%.

For `COc1ccc(-c2cc(=O)c3c(OC)c(OC)c(OC)c(OC)c3o2)cc1OC` [Nobiletin, 2-(3,4-Dimethoxyphenyl)-5,6,7,8-tetramethoxychromen-4-one], the “vasodilating effect in artery with vascular endothelium removed (denudation) compared with artery not denuded” value [1] is given as “suppressed”, the vasodilator response (rat pulmonary artery) is given as “did not occur” and the vasodilating action (rat mesenteric artery) is given as “vasodilating action”. For the same molecule, the “retinal vasodilating effect compared with positive control SNP” value (porcine retinal artery; FIG. 1 (Example 1)) was “higher than that of SNP”, the Maximum vasodilation rate (porcine retinal artery; concentration 10^-4M, percentage with respect to the maximum vasodilation) was 90% and the retinal vasodilating effect (porcine retinal artery; extracted porcine retinal artery, FIG. 1 (Example 1)) was “strong retinal vasodilating effect in a dose-dependent manner”. The “vasodilating action in comparison with known medications” value (porcine retinal artery; influence of the solvent excluded, Table 1) was “most powerful vasodilating action”, the vasodilating action (rat aorta) was “vasodilating action” and the “retinal vasodilating effect after treating the blood vessel with ODQ” value ([2]; ODQ 0.1 μM, 30 minutes, FIG. 1 (Example 1)) was “suppressed”. For the same molecule, the “retinal vasodilating effect after addition of ODQ” value ([2]; n=7, FIG. 4 (Example 4)) was “suppressed”.

For `Oc1ccc(C=Cc2cc(O)cc(O)c2)cc1` [Resveratrol], the Maximum vasodilation rate (retinal blood vessel; concentration 10^-4M) is listed as 60%.

In the case of `CCCCCCCC(=O)CC[C@@H]1[C@@H](C/C=C\CCCC(=O)O)[C@@H](O)C[C@H]1O` [Unoprostone], the Maximum vasodilation rate (retinal blood vessel; concentration 10^-5M) is given as 30%.

B1: Adiponectin (protein, UniProt Q15848 19-244, looked up)
Adiponectin: ETTTQGPGVLLPLPKGACTGWMAGIPGHPGHNGAPGRDGRDGTPGEKGEKGDPGLIGPKGDIGETGVPGAEGPRGFPGIQGRKGEPGEGAYVYRSAFSVGLETYVTIPNMPIRFTKIFYNQQNHYDGSTGKFHCNIPGLYYFAYHITVYMKDVKVSLFKKDKAMLFTYDQYQENNVDQASGSVLLHLEVGDQVWLQVYGEGERNGLYADNDNDSTFTGFLLYHDTN
For B1, the Maximum vasodilation rate (retinal blood vessel; concentration 8 μg/mL) is given as 50%.
